Activity calls are given as the source filed them. How the calls were made is not given here.
System: CCRIS mutagenicity, Ames/micronucleus/aberration tests
Experiment: CCRIS mutagenicity studies

Row | Structure (SMILES) | mutagenic call (End Point: IN VITRO CHROMOSOMAL ABERRATIONS, Test System: CHO CELLS, Metabolic Activation: NONE) | mutagenic call (End Point: IN VITRO CHROMOSOMAL ABERRATIONS, Test System: CHO CELLS, Metabolic Activation: RAT, LIVER, S-9, AROCLOR 1254) | mutagenic call (Test System: AMES SALMONELLA TYPHIMURIUM, Strain/Indicator: TA98, Metabolic Activation: HAMSTER, LIVER, S-9, AROCLOR 1254 (10%), Method: PREINCUBATION) | mutagenic call (Test System: AMES SALMONELLA TYPHIMURIUM, Strain/Indicator: TA98, Metabolic Activation: NONE, Method: PREINCUBATION) | mutagenic call (Test System: AMES SALMONELLA TYPHIMURIUM, Strain/Indicator: TA98, Metabolic Activation: RAT, LIVER, S-9, AROCLOR 1254 (10%), Method: PREINCUBATION) | mutagenic call (Test System: AMES SALMONELLA TYPHIMURIUM, Strain/Indicator: TA100, Metabolic Activation: HAMSTER, LIVER, S-9, AROCLOR 1254 (10%), Method: PREINCUBATION) | mutagenic call (Test System: AMES SALMONELLA TYPHIMURIUM, Strain/Indicator: TA100, Metabolic Activation: NONE, Method: PREINCUBATION) | mutagenic call (Test System: AMES SALMONELLA TYPHIMURIUM, Strain/Indicator: TA100, Metabolic Activation: RAT, LIVER, S-9, AROCLOR 1254 (10%), Method: PREINCUBATION) | mutagenic call (Test System: AMES SALMONELLA TYPHIMURIUM, Strain/Indicator: TA1535, Metabolic Activation: HAMSTER, LIVER, S-9, AROCLOR 1254 (10%), Method: PREINCUBATION) | mutagenic call (Test System: AMES SALMONELLA TYPHIMURIUM, Strain/Indicator: TA1535, Metabolic Activation: NONE, Method: PREINCUBATION) | mutagenic call (Test System: AMES SALMONELLA TYPHIMURIUM, Strain/Indicator: TA1535, Metabolic Activation: RAT, LIVER, S-9, AROCLOR 1254 (10%), Method: PREINCUBATION) | mutagenic call (Test System: AMES SALMONELLA TYPHIMURIUM, Strain/Indicator: TA1537, Metabolic Activation: HAMSTER, LIVER, S-9, AROCLOR 1254 (10%), Method: PREINCUBATION) | mutagenic call (Test System: AMES SALMONELLA TYPHIMURIUM, Strain/Indicator: TA1537, Metabolic Activation: NONE, Method: PREINCUBATION) | mutagenic call (Test System: AMES SALMONELLA TYPHIMURIUM, Strain/Indicator: TA1537, Metabolic Activation: RAT, LIVER, S-9, AROCLOR 1254 (10%), Method: PREINCUBATION) | mutagenic call (Test System: MOUSE LYMPHOMA, Strain/Indicator: L5178Y (TK+/TK-), Metabolic Activation: NONE, Method: SUSPENSION/PLATE) | mutagenic call (Test System: MOUSE LYMPHOMA, Strain/Indicator: L5178Y (TK+/TK-), Metabolic Activation: RAT, LIVER, S-9, AROCLOR 1254, Method: SUSPENSION/PLATE) | mutagenic call (Test System: CHINESE HAMSTER OVARY, Strain/Indicator: CHO/6-THIOGUANINE, Metabolic Activation: NONE)
1 | CCCNC(=O)NS(=O)(=O)c1ccc(Cl)cc1 | inactive; negative | inactive; negative | inactive; negative | inactive; negative | inactive; negative | inactive; negative | inactive; negative | inactive; negative | inactive; negative | inactive; negative | inactive; negative | inactive; negative | inactive; negative | inactive; negative | inactive; negative | inactive; negative | –
2 | Nc1ncnc2c1ncn2[C@@H]1O[C@H](CO)[C@@H](O)[C@@H]1O | – | – | – | – | – | – | – | – | – | – | – | – | – | – | – | – | active; positive

Reference: PubChem BioAssay AID1259407 (Chemical Carcinogenesis Research Information System (CCRIS), 2018)
